How the values were obtained:
Assay type in all cases: in vivo
[1] = test system: barnyardgrass (Echinochloa crus-galli); test: Test B pre-/postemergence plant response
How it was run: (§1)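 Seeds in loam–sand blend given preemergence soil spray; separately, plants at one- to two-leaf stage (2–10 cm) sprayed postemergence, compounds in non-phytotoxic solvent with surfactant. Injury rated visually versus untreated controls after ~10 days in greenhouse, 0 (no effect) to 100 (complete control).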

corn (Zea mays) = test: Test B pre-/postemergence plant response
How it was run: as §1

[2] = test system: giant foxtail (Setaria faberii); test: Test B pre-/postemergence plant response
How it was run: as §1

[3] = test system: large (Lg) crabgrass (Digitaria sanguinalis); test: Test B pre-/postemergence plant response
How it was run: as §1

[4] = test system: morningglory (Ipomoea spp.); test: Test B pre-/postemergence plant response
How it was run: as §1

[5] = test system: pigweed (Amaranthus retroflexus); test: Test B pre-/postemergence plant response
How it was run: as §1

[6] = test system: velvetleaf (Abutilon theophrasti); test: Test B pre-/postemergence plant response
How it was run: as §1

[7] = test system: wheat (Triticum aestivum); test: Test B pre-/postemergence plant response
How it was run: as §1

[8] = test system: barnyardgrass (Echinochloa crus-galli); test: Test C flooded paddy test plant response; details: Flood, 250 g ai/ha; scale of 0 to 100 where 0 is no effect and 100 is complete control; 13 to 15 days
How it was run: (§2)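 Scored visually on a 0–100 scale (100 = complete control) against untreated plants 13 to 15 days after treatment in the greenhouse. Compounds went into paddy water of pots flooded to 3 cm, holding 2-leaf-stage plants.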

[9] = test system: ducksalad (Heteranthera limosa); test: Test C flooded paddy test plant response; details: Flood, 250 g ai/ha; scale of 0 to 100 where 0 is no effect and 100 is complete control; 13 to 15 days
How it was run: as §2

rice (Oryza sativa) = test: Test C flooded paddy test plant response; details: Flood, 250 g ai/ha; scale of 0 to 100 where 0 is no effect and 100 is complete control; 13 to 15 days
How it was run: as §2

[10] = test system: small-flower umbrella sedge (Cyperus difformis); test: Test C flooded paddy test plant response; details: Flood, 250 g ai/ha; scale of 0 to 100 where 0 is no effect and 100 is complete control; 13 to 15 days
How it was run: as §2

[11] = 125 g ai/ha, postemergence, 0 to 100 scale, 0 no effect, 100 complete control
[12] = Postemergence, 500 g ai/ha, 0 to 100 scale (0 no effect, 100 complete control)
[13] = Preemergence, 125 g ai/ha, 0 to 100 scale where 0 is no effect and 100 is complete control
[14] = Preemergence, 500 g ai/ha, 0 to 100 scale (0 no effect, 100 complete control)
[15] = Preemergence, 500 g ai/ha, 0 to 100 scale where 0 is no effect and 100 is complete control

| SMILES | Plant response rating, Barnyardgrass [1, 11] | Plant response rating, Barnyardgrass [1, 12] | Plant response rating, Barnyardgrass [1, 13] | Plant response rating, Corn (corn (Zea mays); [11]) | Plant response rating, Corn (corn (Zea mays); [12]) | Plant response rating, Corn (corn (Zea mays); [13]) | Plant response rating, Foxtail, Giant [2, 11] | Plant response rating, Foxtail, Giant [2, 12] | Plant response rating, Foxtail, Giant [2, 13] | Plant response rating, Crabgrass, Large [3, 11] | Plant response rating, Crabgrass, Large [3, 12] | Plant response rating, Crabgrass, Large [3, 13] | Plant response rating, Morningglory [4, 11] | Plant response rating, Morningglory [4, 12] | Plant response rating, Morningglory [4, 13] | Plant response rating, Pigweed [5, 11] | Plant response rating, Pigweed [5, 12] | Plant response rating, Pigweed [5, 13] | Plant response rating, Velvetleaf [6, 11] | Plant response rating, Velvetleaf [6, 12] | further results |
| --- | --- | --- | --- | --- | --- | --- | --- | --- | --- | --- | --- | --- | --- | --- | --- | --- | --- | --- | --- | --- | --- |
| FC(F)(F)c1cnc(Oc2ccccc2-c2cscn2)nc1 [Compound 14] | 0 | 0 | 0 | 0 | 30 | 0 | 0 | 10 | 0 | 0 | 10 | 0 | 0 | 0 | 0 | 0 | 50 | 0 | 20 | 30 | Plant response rating, Barnyardgrass [1, 14]: 0; Plant response rating, Corn (corn (Zea mays); [14]): 0; Plant response rating, Foxtail, Giant [2, 14]: 30; Plant response rating, Crabgrass, Large [3, 14]: 20; Plant response rating, Morningglory [4, 14]: 0; Plant response rating, Pigweed [5, 14]: 100; Plant response rating, Velvetleaf [6, 13]: 0; Plant response rating, Velvetleaf [6, 14]: 20; Plant response rating, Wheat [7, 11]: 0; Plant response rating, Wheat [7, 12]: 0; Plant response rating, Wheat [7, 13]: 0; Plant response rating, Wheat [7, 14]: 0; Barnyardgrass plant response rating [8]: 0; Ducksalad plant response rating [9]: 40; Rice plant response rating (rice (Oryza sativa)): 0; Sedge, Umbrella plant response rating [10]: 0 |
| Clc1cnc(Oc2ccccc2-c2nccc(Cl)n2)nc1 [Compound 18] | 0 | 0 | 0 | 0 | 0 | 0 | 0 | 0 | 0 | 0 | 0 | 0 | 0 | 0 | 0 | 0 | 0 | 0 | 0 | 0 | Plant response rating, Barnyardgrass [1, 14]: 0; Plant response rating, Corn (corn (Zea mays); [14]): 0; Plant response rating, Foxtail, Giant [2, 14]: 10; Plant response rating, Crabgrass, Large [3, 14]: 20; Plant response rating, Morningglory [4, 14]: 0; Plant response rating, Pigweed [5, 14]: 30; Plant response rating, Velvetleaf [6, 13]: 0; Plant response rating, Velvetleaf [6, 14]: 0; Plant response rating, Wheat [7, 11]: 0; Plant response rating, Wheat [7, 12]: 0; Plant response rating, Wheat [7, 13]: 0; Plant response rating, Wheat [7, 14]: 0; Barnyardgrass plant response rating [8]: 0; Ducksalad plant response rating [9]: 0; Rice plant response rating (rice (Oryza sativa)): 0; Sedge, Umbrella plant response rating [10]: 0 |
| FC(F)(F)c1cccc(-c2ccccc2Oc2ncc(Cl)cn2)n1 [Compound 19] | 0 | 0 | 0 | 0 | 0 | 0 | 0 | 0 | 0 | 0 | 0 | 0 | 0 | 0 | 0 | 0 | 0 | 0 | 0 | 0 | Plant response rating, Barnyardgrass [1, 14]: 0; Plant response rating, Corn (corn (Zea mays); [14]): 0; Plant response rating, Foxtail, Giant [2, 14]: 70; Plant response rating, Crabgrass, Large [3, 14]: 50; Plant response rating, Morningglory [4, 14]: 0; Plant response rating, Pigweed [5, 14]: 20; Plant response rating, Velvetleaf [6, 13]: 0; Plant response rating, Velvetleaf [6, 14]: 0; Plant response rating, Wheat [7, 11]: 0; Plant response rating, Wheat [7, 12]: 0; Plant response rating, Wheat [7, 13]: 0; Plant response rating, Wheat [7, 14]: 0; Barnyardgrass plant response rating [8]: 0; Ducksalad plant response rating [9]: 0; Rice plant response rating (rice (Oryza sativa)): 0; Sedge, Umbrella plant response rating [10]: 0 |
| FC(F)(F)c1nccc(-c2ccccc2Oc2ncc(Cl)cn2)n1 [Compound 20] | 0 | 0 | 0 | 0 | 0 | 0 | 0 | 20 | 10 | 0 | 20 | 10 | 0 | 50 | 0 | 40 | 90 | 0 | 0 | 30 | Plant response rating, Barnyardgrass [1, 14]: 0; Plant response rating, Corn (corn (Zea mays); [14]): 0; Plant response rating, Foxtail, Giant [2, 14]: 60; Plant response rating, Crabgrass, Large [3, 14]: 70; Plant response rating, Morningglory [4, 14]: 0; Plant response rating, Pigweed [5, 14]: 20; Plant response rating, Velvetleaf [6, 13]: 0; Plant response rating, Velvetleaf [6, 14]: 20; Plant response rating, Wheat [7, 11]: 0; Plant response rating, Wheat [7, 12]: 0; Plant response rating, Wheat [7, 13]: 0; Plant response rating, Wheat [7, 14]: 0; Barnyardgrass plant response rating [8]: 0; Ducksalad plant response rating [9]: 0; Rice plant response rating (rice (Oryza sativa)): 0; Sedge, Umbrella plant response rating [10]: 0 |
| FC(F)(F)c1ccnc(-c2ccccc2Oc2ncc(Br)cn2)c1 [Compound 26] | 0 | 20 | 0 | 10 | 20 | 0 | 0 | 30 | 0 | 10 | 30 | 10 | 10 | 50 | 0 | 30 | 80 | 0 | 10 | 80 | Plant response rating, Barnyardgrass [1, 15]: 30; Plant response rating, Corn (corn (Zea mays); [15]): 0; Plant response rating, Foxtail, Giant [2, 15]: 90; Plant response rating, Crabgrass, Large [3, 15]: 100; Plant response rating, Morningglory [4, 15]: 0; Plant response rating, Pigweed [5, 15]: 100; Plant response rating, Velvetleaf [6, 13]: 10; Plant response rating, Velvetleaf [6, 15]: 80; Plant response rating, Wheat [7, 11]: 0; Plant response rating, Wheat [7, 12]: 10; Plant response rating, Wheat [7, 13]: 0; Plant response rating, Wheat [7, 15]: 0; Barnyardgrass plant response rating [8]: 0; Ducksalad plant response rating [9]: 0; Rice plant response rating (rice (Oryza sativa)): 0; Sedge, Umbrella plant response rating [10]: 0 |
| FC(F)(F)c1ccc(-c2ccccc2Oc2ncc(Br)cn2)nc1 [Compound 28] | 0 | 50 | 0 | 0 | 20 | 0 | 20 | 40 | 30 | 20 | 40 | 40 | 0 | 30 | 0 | 30 | 100 | 40 | 40 | 100 | Plant response rating, Barnyardgrass [1, 15]: 60; Plant response rating, Corn (corn (Zea mays); [15]): 0; Plant response rating, Foxtail, Giant [2, 15]: 90; Plant response rating, Crabgrass, Large [3, 15]: 100; Plant response rating, Morningglory [4, 15]: 0; Plant response rating, Pigweed [5, 15]: 80; Plant response rating, Velvetleaf [6, 13]: 0; Plant response rating, Velvetleaf [6, 15]: 60; Plant response rating, Wheat [7, 11]: 0; Plant response rating, Wheat [7, 12]: 0; Plant response rating, Wheat [7, 13]: 0; Plant response rating, Wheat [7, 15]: 0; Barnyardgrass plant response rating [8]: 0; Ducksalad plant response rating [9]: 0; Rice plant response rating (rice (Oryza sativa)): 0; Sedge, Umbrella plant response rating [10]: 0 |

— US10131652B2, “Pyrimidinyloxy benzene derivatives as herbicides” (E. I. DU PONT DE NEMOURS AND COMPANY, priority 2014, dated 2018)
